Results: ChEMBL document CHEMBL1201862, “PubChem BioAssay data set” (2004)
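The compound was tested at five concentrations on cells cultured in 96-well plates, with a 48-hour exposure period. Abbreviation: GI50, concentration required for 50% inhibition of growth.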 Calls of active or inactive are those of the source. Cut-off read from the data, not from the text of the source: active = GI50 up to about 1.1 µM and inactive = higher.

How the values were obtained:
Assay in all cases: NCI tumour cell line growth inhibition, 48 h
OVCAR-4 = system: OVCAR-4
DMS-273 = system: DMS-273
UACC-257 = system: UACC-257
KM12 = system: KM12
SF-539 = system: SF-539
SK-MEL-28 = system: SK-MEL-28
SK-OV-3 = system: SK-OV-3
DLD-1 = system: DLD-1
DMS-114 = system: DMS-114
RXF 393 = system: RXF 393
SNB-78 = system: SNB-78
SW-620 = system: SW-620
SF-268 = system: SF-268
A498 = system: A498
MOLT-4 = system: MOLT-4
SNB-75 = system: SNB-75
HOP-62 = system: HOP-62
SF-295 = system: SF-295
UACC-62 = system: UACC-62
HL-60 = system: HL-60
K562 = system: K562
TK-10 = system: TK-10
Malme-3M = system: Malme-3M
SR = system: SR
COLO 205 = system: COLO 205
NCI-H522 = system: NCI-H522
NCI-H226 = system: NCI-H226
SNB-19 = system: SNB-19
ACHN = system: ACHN
SK-MEL-5 = system: SK-MEL-5
UO-31 = system: UO-31
M14 = system: M14
786-0 = system: 786-0
LXFL 529 = system: LXFL 529
HCT-116 = system: HCT-116
HCT-15 = system: HCT-15
U-251 = system: U-251
RXF 631 = system: RXF 631
LOX IMVI = system: LOX IMVI
M19-MEL = system: M19-MEL
HCC 2998 = system: HCC 2998
OVCAR-5 = system: OVCAR-5
RPMI-8226 = system: RPMI-8226
SN12C = system: SN12C
A549 = system: A549
OVCAR-3 = system: OVCAR-3
CCRF-CEM = system: CCRF-CEM
OVCAR-8 = system: OVCAR-8
IGROV-1 = system: IGROV-1
HT-29 = system: HT-29
EKVX = system: EKVX
HOP-18 = system: HOP-18
SK-MEL-2 = system: SK-MEL-2
NCI-H460 = system: NCI-H460
CAKI-1 = system: CAKI-1
KM-20L2 = system: KM-20L2
NCI-H23 = system: NCI-H23
XF498 = system: XF498
HOP-92 = system: HOP-92

Measured: GI50

CC(=O)c1ccc(NC(=O)/C(Cc2ccccn2)=N/NC(=O)C[N+](C)(C)C)cc1
inactive: OVCAR-4 > 100 µM | DMS-273 > 100 µM | UACC-257 > 100 µM | KM12 > 100 µM | SF-539 > 100 µM | SK-MEL-28 > 100 µM | SK-OV-3 > 100 µM | DLD-1 > 100 µM | DMS-114 > 100 µM | RXF 393 > 100 µM | SNB-78 > 100 µM | SW-620 > 100 µM | SF-268 > 100 µM | A498 > 100 µM | MOLT-4 > 100 µM | SNB-75 > 100 µM | HOP-62 > 100 µM | SF-295 > 100 µM | UACC-62 > 100 µM | HL-60 > 100 µM | K562 > 100 µM | TK-10 > 100 µM | Malme-3M > 100 µM | SR > 100 µM | COLO 205 > 100 µM | NCI-H522 > 100 µM | NCI-H226 > 100 µM | SNB-19 > 100 µM | ACHN > 100 µM | SK-MEL-5 > 100 µM | UO-31 > 100 µM | M14 > 100 µM | 786-0 > 100 µM | LXFL 529 > 100 µM | HCT-116 > 100 µM | U-251 > 100 µM | RXF 631 > 100 µM | LOX IMVI > 100 µM | M19-MEL > 100 µM | HCC 2998 > 100 µM | OVCAR-5 > 100 µM | RPMI-8226 > 100 µM | SN12C > 100 µM | A549 > 100 µM | OVCAR-3 > 100 µM | CCRF-CEM > 100 µM | OVCAR-8 > 100 µM | IGROV-1 > 100 µM | HT-29 > 100 µM | EKVX > 100 µM | HOP-18 > 100 µM | SK-MEL-2 > 100 µM | NCI-H460 > 100 µM | CAKI-1 > 100 µM | KM-20L2 > 100 µM | NCI-H23 > 100 µM
> 100 µM: HCT-15

O=[N+]([O-])c1ccccc1C1N2CCCCC2[C@@H]2c3[nH]c4ccccc4c3CCN12 (some centres not stated)
inactive: OVCAR-4 17.3 µM | DMS-273 10.9 µM | UACC-257 13.7 µM | SF-539 12.2 µM | SK-MEL-28 13.7 µM | SK-OV-3 17.9 µM | DLD-1 14.2 µM | DMS-114 4.34 µM | RXF 393 12.6 µM | SNB-78 15.3 µM | SW-620 11.4 µM | XF498 16.9 µM | SF-268 11.6 µM | A498 12.6 µM | MOLT-4 5.78 µM | HOP-62 14.8 µM | SF-295 13.8 µM | UACC-62 3.78 µM | HL-60 3.7 µM | K562 3.57 µM | TK-10 16.5 µM | COLO 205 13.2 µM | SNB-19 14.9 µM | ACHN 12.4 µM | SK-MEL-5 13.4 µM | UO-31 11.3 µM | M14 13.7 µM | 786-0 16.1 µM | LXFL 529 10.8 µM | U-251 15.6 µM | RXF 631 13.2 µM | M19-MEL 6.25 µM | OVCAR-5 19.1 µM | RPMI-8226 10.9 µM | SN12C 13.6 µM | A549 9.84 µM | OVCAR-3 19.8 µM | CCRF-CEM 10.4 µM | OVCAR-8 16.8 µM | IGROV-1 15.6 µM | HT-29 7.53 µM | EKVX 20.7 µM | HOP-92 15.1 µM | HOP-18 36.5 µM | SK-MEL-2 13.6 µM | NCI-H460 17.7 µM | CAKI-1 14 µM | KM-20L2 12.4 µM | NCI-H23 14.4 µM
10.9 µM: HCT-15
